The values below are quoted from earlier work in US9180152B2, “Method for treating psoriasis” (NIKKEN SOHONSHA CORPORATION, priority 2009, dated 2015).

The data set relates to Psoriasis. To be noted: well-tolerated oral doses.

As to `CC1=C(/C=C/C(C)=C\C=C\C(C)=C\C(=O)O)C(C)(C)CCC1` [9-cis-retinoic acid], the response of psoriasis entry is given as “did not respond”.
